Here are results for 19 compounds from BindingDB's records for doi:10.1021/jm00007a008 (Glaxo Inc. Research Institute, 1995).

A word on the IC50: it is the concentration that gives 50% inhibition.

Experiment [1] in a line: In vitro fragmentation of DNA in the presence of excess calf thymus topoisomerase.
Experiment [2] can be described thus: Minimum concentration that produced 50% fragmentation of DNA was measured in the presence of excess calf thymus topoisomerase.

As to `CC[C@@]1(O)C(=O)OCc2c1cc1n(c2=O)Cc2c-1nc1c[n+]([O-])c(CNC(=O)OC(C)(C)C)cc1c2C` [((S)-4-Ethyl-4-hydroxy-11-methyl-3,13-dioxo-8-oxy-3,4,12,13-tetrahydro-1H-2-oxa-6,8,12a-triaza-dibenzo[b,h]fluoren-9-ylmethyl)-carbamic acid tert-butyl ester], in experiment [1], the IC50 was found to be 217 nM.

For `CCc1c2c(nc3cnc(C(=N)NO)cc13)-c1cc3c(c(=O)n1C2)COC(=O)[C@]3(O)CC` [(S)-4,11-Diethyl-4,N-dihydroxy-3,13-dioxo-3,4,12,13-tetrahydro-1H-2-oxa-6,8,12a-triaza-dibenzo[b,h]fluorene-9-carboxamidine], the IC50 in experiment [2] was determined as 71 nM.

`CCc1c2c(nc3cnccc13)-c1cc3c(c(=O)n1C2)COC(=O)[C@]3(O)CC` [(S)-4,11-Diethyl-4-hydroxy-1,12-dihydro-4H-2-oxa-6,8,12a-triaza-dibenzo[b,h]fluorene-3,13-dione]: in experiment [1], the IC50 came to 336 nM.

On to `CCc1c2c(nc3cnc(C#N)cc13)-c1cc3c(c(=O)n1C2)COC(=O)[C@]3(O)CC` [(S)-4,11-Diethyl-4-hydroxy-3,13-dioxo-3,4,12,13-tetrahydro-1H-2-oxa-6,8,12a-triaza-dibenzo[b,h]fluorene-9-carbonitrile], for which the IC50 in experiment [1] was found to be 268 nM.

Regarding `CCc1c2c(nc3cnc(C(=N)N)cc13)-c1cc3c(c(=O)n1C2)COC(=O)[C@]3(O)CC` [(S)-4,11-Diethyl-4-hydroxy-3,13-dioxo-3,4,12,13-tetrahydro-1H-2-oxa-6,8,12a-triaza-dibenzo[b,h]fluorene-9-carboxamidine], in experiment [2], the IC50 turned out to be 33 nM.

As for `CCc1c2c(nc3cnc(C(=O)NCCN(C)C)cc13)-c1cc3c(c(=O)n1C2)COC(=O)[C@]3(O)CC` [(S)-4,11-Diethyl-4-hydroxy-3,13-dioxo-3,4,12,13-tetrahydro-1H-2-oxa-6,8,12a-triaza-dibenzo[b,h]fluorene-9-carboxylic acid (2-dimethylamino-ethyl)-amide], the IC50 in experiment [1] worked out at 9330 nM.

On to `CCOC(=O)c1cc2c(CC)c3c(nc2cn1)-c1cc2c(c(=O)n1C3)COC(=O)[C@]2(O)CC` [(S)-4,11-Diethyl-4-hydroxy-3,13-dioxo-3,4,12,13-tetrahydro-1H-2-oxa-6,8,12a-triaza-dibenzo[b,h]fluorene-9-carboxylic acid ethyl ester], for which, in experiment [1], the half-maximal inhibitory concentration (IC50) was found to be 949 nM.

In the case of `CCc1c2c(nc3c[n+](C)ccc13)-c1cc3c(c(=O)n1C2)COC(=O)[C@]3(O)CC` [(S)-4,11-Diethyl-4-hydroxy-8-methyl-3,13-dioxo-3,4,12,13-tetrahydro-1H-2-oxa-6,12a-diaza-8-azonia-dibenzo[b,h]fluorene; iodide], the IC50 in experiment [2] came to 1460 nM.

On to `CC[C@@]1(O)C(=O)OCc2c1cc1n(c2=O)Cc2cc3ccncc3nc2-1` [(S)-4-Ethyl-4-hydroxy-1,12-dihydro-4H-2-oxa-6,8,12a-triaza-dibenzo[b,h]fluorene-3,13-dione], for which the concentration for half-maximal inhibition (IC50) in experiment [1] was found to be 383 nM.

As to `CC[C@@]1(O)C(=O)OCc2c1cc1n(c2=O)Cc2cc3cc[n+]([O-])cc3nc2-1` [(S)-4-Ethyl-4-hydroxy-8-oxy-1,12-dihydro-4H-2-oxa-6,8,12a-triaza-dibenzo[b,h]fluorene-3,13-dione], in experiment [1], the half-inhibitory concentration (IC50) was determined as 1180 nM.

Regarding `CC[C@@]1(O)C(=O)OCc2c1cc1n(c2=O)Cc2c-1nc1cnc(C#CCN3CCOCC3)cc1c2C` [(S)-4-Ethyl-4-hydroxy-11-methyl-9-(3-morpholin-4-yl-prop-1-ynyl)-1,12-dihydro-4H-2-oxa-6,8,12a-triaza-dibenzo[b,h]fluorene-3,13-dione], in experiment [1], the IC50 was determined as 1110 nM.

Regarding `CCc1c2c(nc3cnc(C#CCN)cc13)-c1cc3c(c(=O)n1C2)COC(=O)[C@]3(O)CC` [(S)-9-(3-Amino-prop-1-ynyl)-4,11-diethyl-4-hydroxy-1,12-dihydro-4H-2-oxa-6,8,12a-triaza-dibenzo[b,h]fluorene-3,13-dione], the IC50 in experiment [2] was 1080 nM.

On to `CC[C@@]1(O)C(=O)OCc2c1cc1n(c2=O)Cc2c-1nc1cnc(C#CCN)cc1c2C` [(S)-9-(3-Amino-prop-1-ynyl)-4-ethyl-4-hydroxy-11-methyl-1,12-dihydro-4H-2-oxa-6,8,12a-triaza-dibenzo[b,h]fluorene-3,13-dione], for which, in experiment [1], the IC50 is 505 nM.

In the case of `CCc1c2c(nc3cnc(C#CCN(C)C)cc13)-c1cc3c(c(=O)n1C2)COC(=O)[C@]3(O)CC` [(S)-9-(3-Dimethylamino-prop-1-ynyl)-4,11-diethyl-4-hydroxy-1,12-dihydro-4H-2-oxa-6,8,12a-triaza-dibenzo[b,h]fluorene-3,13-dione], in experiment [1], the IC50 was 1330 nM.

As for `CCc1c2c(nc3cnc(CCCN(C)C)cc13)-c1cc3c(c(=O)n1C2)COC(=O)[C@]3(O)CC` [(S)-9-(3-Dimethylamino-propyl)-4,11-diethyl-4-hydroxy-1,12-dihydro-4H-2-oxa-6,8,12a-triaza-dibenzo[b,h]fluorene-3,13-dione], the IC50 in experiment [1] is 1490 nM.

As for `CCc1c2c(nc3cnc(CN)cc13)-c1cc3c(c(=O)n1C2)COC(=O)[C@]3(O)CC` [(S)-9-Aminomethyl-4,11-diethyl-4-hydroxy-1,12-dihydro-4H-2-oxa-6,8,12a-triaza-dibenzo[b,h]fluorene-3,13-dione], the IC50 in experiment [1] came out at 167 nM.

On to `CC[C@@]1(O)C(=O)OCc2c1cc1n(c2=O)Cc2c-1nc1cnc(CN)cc1c2C` [(S)-9-Aminomethyl-4-ethyl-4-hydroxy-11-methyl-1,12-dihydro-4H-2-oxa-6,8,12a-triaza-dibenzo[b,h]fluorene-3,13-dione], for which the IC50 in experiment [2] came out at 232 nM.

With `CC[C@@]1(O)C(=O)OCc2c1cc1n(c2=O)Cc2c-1nc1c[n+]([O-])c(CN)cc1c2C` [(S)-9-Aminomethyl-4-ethyl-4-hydroxy-11-methyl-8-oxy-1,12-dihydro-4H-2-oxa-6,8,12a-triaza-dibenzo[b,h]fluorene-3,13-dione], the half-inhibitory concentration (IC50) in experiment [2] was found to be 190 nM.

In the case of `CCc1c2c(nc3cnc(Br)cc13)-c1cc3c(c(=O)n1C2)COC(=O)[C@]3(O)CC` [(S)-9-Bromo-4,11-diethyl-4-hydroxy-1,12-dihydro-4H-2-oxa-6,8,12a-triaza-dibenzo[b,h]fluorene-3,13-dione], the IC50 in experiment [1] came out at 122 nM.
